Laboratory results from ChEMBL document CHEMBL1201862, “PubChem BioAssay data set” (2004).
Activity calls are given as the source filed them.

What was measured:
Assay type in all cases: functional
[1] = biological target: T1, Corticotropin-releasing factor receptor 2/Corticotropin-releasing factor-binding protein (Homo sapiens, UniProt P24387+Q13324); assay: Dose Response confirmation of uHTS hits for small molecule antagonists of the CRF-binding protein and CRF-R2 receptor complex.; details: read-out: IC50_Mean
T1 sequence (Q13324 whole entry): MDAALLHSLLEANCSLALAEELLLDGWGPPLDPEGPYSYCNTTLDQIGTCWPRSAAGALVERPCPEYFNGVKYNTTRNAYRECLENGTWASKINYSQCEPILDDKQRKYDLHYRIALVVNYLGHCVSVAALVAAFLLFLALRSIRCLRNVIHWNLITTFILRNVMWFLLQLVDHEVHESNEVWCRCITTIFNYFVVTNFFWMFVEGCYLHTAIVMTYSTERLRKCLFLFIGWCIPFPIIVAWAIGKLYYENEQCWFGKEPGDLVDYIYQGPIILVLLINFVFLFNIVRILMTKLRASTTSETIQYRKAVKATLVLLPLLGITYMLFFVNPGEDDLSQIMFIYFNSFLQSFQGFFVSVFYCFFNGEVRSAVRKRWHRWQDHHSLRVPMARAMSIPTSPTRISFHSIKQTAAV
T1 sequence (P24387 whole entry): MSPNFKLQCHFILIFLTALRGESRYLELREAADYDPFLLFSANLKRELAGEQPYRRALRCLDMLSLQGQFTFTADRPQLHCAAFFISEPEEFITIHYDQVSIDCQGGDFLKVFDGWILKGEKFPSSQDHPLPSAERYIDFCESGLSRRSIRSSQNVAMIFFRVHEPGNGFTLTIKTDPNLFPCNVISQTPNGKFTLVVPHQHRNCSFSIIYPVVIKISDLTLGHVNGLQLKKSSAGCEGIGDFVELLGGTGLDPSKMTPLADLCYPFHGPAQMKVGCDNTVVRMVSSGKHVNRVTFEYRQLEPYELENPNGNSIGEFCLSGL

[2] = biological target: T1, Corticotropin-releasing factor receptor 2/Corticotropin-releasing factor-binding protein; assay: activators of CRF receptor 2 with binding protein – uHTS hits, confirmation (AID 602473); details: read-out: EC50_Mean
[3] = biological target: T2, Heat shock factor protein 1 (Mus musculus, UniProt P38532); assay: inhibition of MG132-induced HSE-luciferase signal, confirmation, cell-based, NIH3T3, luminescence, dose retest (AID 2382);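 note: NIH3T3 fibroblasts with HSF1-driven luciferase reporter stressed by proteasome inhibitor MG132; luminescence from HSF1-driven luciferase expression after 8 hours of MG132 stress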
T2 sequence (P38532 whole entry): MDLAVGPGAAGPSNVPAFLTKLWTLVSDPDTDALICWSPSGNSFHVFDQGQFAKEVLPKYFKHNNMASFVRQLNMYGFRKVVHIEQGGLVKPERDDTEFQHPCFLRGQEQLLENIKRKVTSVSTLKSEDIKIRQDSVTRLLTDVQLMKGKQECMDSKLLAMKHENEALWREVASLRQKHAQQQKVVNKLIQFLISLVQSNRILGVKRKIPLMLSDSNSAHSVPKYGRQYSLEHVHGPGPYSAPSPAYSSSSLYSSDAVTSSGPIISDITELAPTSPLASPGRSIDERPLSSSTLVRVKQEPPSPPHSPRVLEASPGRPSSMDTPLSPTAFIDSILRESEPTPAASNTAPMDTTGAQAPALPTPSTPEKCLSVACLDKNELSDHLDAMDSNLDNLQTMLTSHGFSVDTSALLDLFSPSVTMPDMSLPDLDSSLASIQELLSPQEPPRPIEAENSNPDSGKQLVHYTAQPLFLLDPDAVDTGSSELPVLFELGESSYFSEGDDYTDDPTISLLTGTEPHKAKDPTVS

H4 = assay: Luminescence Cell-Based Dose Response HTS to Identify Activators of 5'UTR Stem-Loop Driven Prion Protein mRNA Translation in H4 Neuroglioblastoma Cells. [Related pubchem assays: 1829 (Project Summary), 1814 (Primary HTS)]; details: Homo sapiens
[4] = Luminescence Cell-Based Dose Response HTS to Identify Activators of Luciferase Translation or Activity in H4 […] Cells. [Related pubchem assays: 1829 (Project Summary), 1814 (Primary HTS)]
[5] = biological target: T3, Sentrin-specific protease 6 (Homo sapiens, UniProt Q9GZR1);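 note: Luminescence-based dose-response confirmatory assay of SENP6 inhibition, following up an ultra-high-throughput screen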
T3 sequence (Q9GZR1 whole entry): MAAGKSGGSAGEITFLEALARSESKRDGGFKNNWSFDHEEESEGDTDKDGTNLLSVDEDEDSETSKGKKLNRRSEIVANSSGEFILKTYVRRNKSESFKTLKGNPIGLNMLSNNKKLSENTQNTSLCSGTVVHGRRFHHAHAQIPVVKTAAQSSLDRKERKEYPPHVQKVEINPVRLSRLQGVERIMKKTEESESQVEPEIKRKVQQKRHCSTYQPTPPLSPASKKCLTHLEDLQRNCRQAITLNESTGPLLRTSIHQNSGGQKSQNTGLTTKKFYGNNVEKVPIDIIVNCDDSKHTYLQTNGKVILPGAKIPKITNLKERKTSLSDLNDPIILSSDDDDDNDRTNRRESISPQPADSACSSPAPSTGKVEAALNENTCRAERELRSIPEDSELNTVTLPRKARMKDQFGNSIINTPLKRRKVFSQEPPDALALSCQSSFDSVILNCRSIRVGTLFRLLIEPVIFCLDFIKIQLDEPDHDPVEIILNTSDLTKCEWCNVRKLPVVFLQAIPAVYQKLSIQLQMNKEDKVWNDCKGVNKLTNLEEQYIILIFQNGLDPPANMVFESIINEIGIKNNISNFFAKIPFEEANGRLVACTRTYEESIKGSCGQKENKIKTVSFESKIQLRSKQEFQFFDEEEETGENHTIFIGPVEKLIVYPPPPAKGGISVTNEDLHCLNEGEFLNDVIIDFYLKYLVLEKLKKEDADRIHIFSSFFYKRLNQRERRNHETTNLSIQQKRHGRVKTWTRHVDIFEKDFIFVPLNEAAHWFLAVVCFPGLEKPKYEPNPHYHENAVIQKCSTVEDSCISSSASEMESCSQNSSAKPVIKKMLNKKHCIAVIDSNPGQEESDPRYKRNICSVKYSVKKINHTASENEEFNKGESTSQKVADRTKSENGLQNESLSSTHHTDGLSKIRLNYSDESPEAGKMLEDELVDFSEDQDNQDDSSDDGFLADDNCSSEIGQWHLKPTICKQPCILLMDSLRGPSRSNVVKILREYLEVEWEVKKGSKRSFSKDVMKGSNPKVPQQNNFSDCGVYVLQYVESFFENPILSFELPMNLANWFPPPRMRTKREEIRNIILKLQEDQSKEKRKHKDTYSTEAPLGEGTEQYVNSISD

Caspase-3 = biological target: T4, Caspase-3 (Homo sapiens, UniProt P42574);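 note: Dose-response selectivity test against caspase-3 for candidate inhibitors of sentrin-specific proteases (SENPs)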
T4 sequence (P42574 whole entry): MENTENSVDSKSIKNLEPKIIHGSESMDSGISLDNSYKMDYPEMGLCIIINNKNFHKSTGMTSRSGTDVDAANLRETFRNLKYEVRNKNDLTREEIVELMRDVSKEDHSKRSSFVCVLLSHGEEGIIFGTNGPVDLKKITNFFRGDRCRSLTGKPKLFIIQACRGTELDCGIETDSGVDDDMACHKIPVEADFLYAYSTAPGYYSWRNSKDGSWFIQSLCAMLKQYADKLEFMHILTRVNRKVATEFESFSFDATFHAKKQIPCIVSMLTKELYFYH

[6] = biological target: T5, Sentrin-specific protease 7 (Homo sapiens, UniProt Q9BQF6);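 note: Luminescence-based dose-response confirmation of ultra-high-throughput screening hits, measuring inhibition of SENP7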
T5 sequence (Q9BQF6 whole entry): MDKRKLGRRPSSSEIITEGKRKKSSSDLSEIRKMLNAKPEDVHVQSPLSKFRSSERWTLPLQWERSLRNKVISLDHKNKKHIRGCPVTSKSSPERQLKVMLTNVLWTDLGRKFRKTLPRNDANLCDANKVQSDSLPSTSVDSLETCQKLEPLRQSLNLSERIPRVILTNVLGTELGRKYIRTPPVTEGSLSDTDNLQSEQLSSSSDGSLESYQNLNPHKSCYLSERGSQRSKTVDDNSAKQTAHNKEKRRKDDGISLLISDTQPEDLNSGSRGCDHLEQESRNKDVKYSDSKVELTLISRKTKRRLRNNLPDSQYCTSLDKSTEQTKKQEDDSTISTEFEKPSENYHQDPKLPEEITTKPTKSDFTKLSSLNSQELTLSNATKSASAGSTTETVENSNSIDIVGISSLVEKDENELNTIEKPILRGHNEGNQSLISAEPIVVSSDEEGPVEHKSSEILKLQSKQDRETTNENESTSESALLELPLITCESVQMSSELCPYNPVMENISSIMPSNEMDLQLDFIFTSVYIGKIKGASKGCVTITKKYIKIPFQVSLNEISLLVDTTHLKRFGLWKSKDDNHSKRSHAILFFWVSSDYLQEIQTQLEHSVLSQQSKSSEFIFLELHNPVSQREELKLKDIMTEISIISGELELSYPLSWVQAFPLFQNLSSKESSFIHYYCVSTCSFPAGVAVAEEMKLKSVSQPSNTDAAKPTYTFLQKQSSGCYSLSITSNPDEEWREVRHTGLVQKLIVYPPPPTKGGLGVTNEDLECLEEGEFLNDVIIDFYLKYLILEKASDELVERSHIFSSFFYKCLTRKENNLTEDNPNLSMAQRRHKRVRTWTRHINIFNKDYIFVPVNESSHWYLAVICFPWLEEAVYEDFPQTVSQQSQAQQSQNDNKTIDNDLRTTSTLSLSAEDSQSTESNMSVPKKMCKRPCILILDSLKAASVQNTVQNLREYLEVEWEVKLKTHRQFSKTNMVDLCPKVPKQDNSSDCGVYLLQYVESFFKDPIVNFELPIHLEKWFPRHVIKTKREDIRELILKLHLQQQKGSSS

[7] = biological target: T6, Sentrin-specific protease 8 (Homo sapiens, UniProt Q96LD8);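 note: luminescence read-out of SENP8 inhibition, dose-response confirmation following an ultra-high-throughput screen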
T6 sequence (Q96LD8 whole entry): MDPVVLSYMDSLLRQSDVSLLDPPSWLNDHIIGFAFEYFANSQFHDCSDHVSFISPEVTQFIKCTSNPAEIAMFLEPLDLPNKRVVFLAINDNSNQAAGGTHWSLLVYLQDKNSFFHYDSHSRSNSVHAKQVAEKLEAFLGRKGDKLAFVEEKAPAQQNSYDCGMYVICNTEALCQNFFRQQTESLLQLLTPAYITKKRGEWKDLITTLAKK

Vero = Vero cell cytotoxicity, cytotoxicity control for flavivirus capping enzyme inhibitors (AID 588742); details: Chlorocebus sabaeus
Genome polyprotein = Genome polyprotein (dengue virus type 2, UniProt P29990); assay: Dengue-2 NS5 methyltransferase inhibitors, primary screen, biochemical, confirmation dose response (AID 588689)
[8] = intracellular Trypanosoma cruzi inhibitors in host cells – cell-based, plate reader, cherry-pick samples, set 3, dose response (AID 651818);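 note: compounds incubated with infected cells for about four days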
Protein skinhead-1 = biological target: T7, Protein skinhead-1 (Caenorhabditis elegans, UniProt P34707)
T7 sequence (P34707 whole entry): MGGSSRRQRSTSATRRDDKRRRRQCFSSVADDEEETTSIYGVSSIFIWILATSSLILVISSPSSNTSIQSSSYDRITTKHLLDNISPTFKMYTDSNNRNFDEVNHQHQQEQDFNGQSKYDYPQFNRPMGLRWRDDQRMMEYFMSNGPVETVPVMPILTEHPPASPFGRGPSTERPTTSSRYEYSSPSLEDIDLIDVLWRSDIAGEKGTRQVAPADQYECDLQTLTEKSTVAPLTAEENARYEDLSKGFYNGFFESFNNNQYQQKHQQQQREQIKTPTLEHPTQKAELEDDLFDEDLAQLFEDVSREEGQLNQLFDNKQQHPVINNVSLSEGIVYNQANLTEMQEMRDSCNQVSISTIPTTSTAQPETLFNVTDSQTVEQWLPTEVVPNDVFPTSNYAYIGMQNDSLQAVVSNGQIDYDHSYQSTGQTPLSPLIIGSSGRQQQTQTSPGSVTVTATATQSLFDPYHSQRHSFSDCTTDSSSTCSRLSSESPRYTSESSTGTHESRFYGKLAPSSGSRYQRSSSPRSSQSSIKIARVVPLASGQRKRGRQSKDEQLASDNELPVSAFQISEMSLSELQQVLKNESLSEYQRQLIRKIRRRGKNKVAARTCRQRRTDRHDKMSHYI

Sequence of Genome polyprotein (P29990 2492-3391 limits assumed): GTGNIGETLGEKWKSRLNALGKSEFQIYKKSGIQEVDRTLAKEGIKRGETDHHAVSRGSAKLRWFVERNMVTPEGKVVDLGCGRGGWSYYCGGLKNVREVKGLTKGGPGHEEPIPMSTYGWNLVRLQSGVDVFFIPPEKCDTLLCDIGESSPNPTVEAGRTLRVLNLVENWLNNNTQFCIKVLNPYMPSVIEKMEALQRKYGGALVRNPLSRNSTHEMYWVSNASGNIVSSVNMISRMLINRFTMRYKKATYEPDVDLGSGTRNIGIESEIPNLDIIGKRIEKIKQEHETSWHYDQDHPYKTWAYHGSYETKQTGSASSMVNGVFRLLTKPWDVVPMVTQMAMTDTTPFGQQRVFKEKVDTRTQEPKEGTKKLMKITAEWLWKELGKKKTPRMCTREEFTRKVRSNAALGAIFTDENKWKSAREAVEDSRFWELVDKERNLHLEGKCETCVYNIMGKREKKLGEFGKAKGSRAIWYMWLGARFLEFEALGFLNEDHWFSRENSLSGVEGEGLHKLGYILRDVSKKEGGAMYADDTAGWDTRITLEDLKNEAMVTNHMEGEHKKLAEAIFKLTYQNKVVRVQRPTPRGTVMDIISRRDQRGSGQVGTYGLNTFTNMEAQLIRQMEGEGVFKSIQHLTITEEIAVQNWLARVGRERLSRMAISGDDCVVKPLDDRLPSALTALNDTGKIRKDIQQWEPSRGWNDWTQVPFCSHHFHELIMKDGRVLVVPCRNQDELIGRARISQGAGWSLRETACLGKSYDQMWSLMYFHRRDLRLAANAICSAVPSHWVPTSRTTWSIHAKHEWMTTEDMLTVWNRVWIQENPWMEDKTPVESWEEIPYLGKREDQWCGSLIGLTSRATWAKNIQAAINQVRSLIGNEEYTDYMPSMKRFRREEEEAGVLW

Structure (SMILES): Cc1ccc(C(=O)Nc2ccccc2C(=O)NC2CCCCC2)cc1S(=O)(=O)N1CCOCC1
- IC50 [1]: > 47.1 µM (inactive)
- EC50 [2]: > 53 µM (inactive)

Structure (SMILES): Cc1cc(O)c(C2=Nc3ccccc3SC(c3ccc(Cl)cc3)C2)c(=O)o1 (stereo not given)
- EC50 [3]: 21 µM (active)
- EC50 (H4): 107 µM (inconclusive)
- EC50 [4]: 38.4 µM (active)
- IC50 [1]: > 47.1 µM (inactive)
- EC50 [2]: > 53 µM (inactive)

Structure (SMILES): COc1ccc(C(=O)Nc2cccc(C(=O)O)c2)cc1S(=O)(=O)N1CCCC1
- IC50 [5]: 22.1 µM (active)
- IC50 (Caspase-3): 46.9 µM (active)
- IC50 [6]: 6.06 µM (active)
- IC50 [7]: 26.6 µM (active)

Structure (SMILES): Cc1cccc(C(=O)N2c3ccccc3C(=O)OC2c2ccc3c(c2)OCO3)c1 (stereo not given)
- IC50 [1]: < 0.368 µM (active)
- EC50 [2]: > 53 µM (inactive)

Structure (SMILES): Cc1ccc(C(=O)Nc2cccc3cccnc23)cc1C
- IC50 [5]: 14.5 µM (active)
- IC50 (Caspase-3): 15.6 µM (active)
- IC50 [6]: 3.98 µM (active)
- IC50 [7]: 18.8 µM (active)

Structure (SMILES): N#CC(=C1C=C(Br)C(=NO)C=C1Cl)c1ccc(Cl)cc1
- CC50 (Vero): > 40 µM (active)
- IC50 (Genome polyprotein): 62.4 µM (active)

Structure (SMILES): COC(=O)C1=C(C)N=C(C)/C(=C(/O)OC)C1/C=C/c1ccccc1 (stereo not given)
- IC50 [1]: > 47.1 µM (inactive)
- EC50 [2]: > 53 µM (inactive)

Structure (SMILES): C[C@@H]1CCCCO[C@@H](CN(C)Cc2ccc(C(F)(F)F)cc2)[C@@H](C)CN([C@H](C)CO)C(=O)c2cc(NS(=O)(=O)c3ccc(F)cc3)ccc2O1
- AC50 [8]: 5.13 µM (active)

Structure (SMILES): C[C@@H]1CN([C@H](C)CO)C(=O)Cc2cc(NC(=O)Nc3ccc(C(F)(F)F)cc3)ccc2O[C@@H]1CN(C)Cc1ccc(Cl)c(Cl)c1
- AC50 [8]: 6.82 µM (active)

Structure (SMILES): C[C@@H]1CN([C@H](C)CO)C(=O)c2cccc(NC(=O)c3nc4ccccc4s3)c2O[C@@H]1CN(C)Cc1ccc(C(F)(F)F)cc1
- AC50 [8]: 5.42 µM (active)

Structure (SMILES): C[C@@H]1CN([C@@H](C)CO)C(=O)c2cccc(NC(=O)Nc3ccccc3)c2O[C@H]1CN(C)Cc1ccc(Oc2ccccc2)cc1
- AC50 [8]: 2.97 µM (active)

Structure (SMILES): O=[N+]([O-])c1ccc(CSc2nc3ccccc3o2)cc1
- IC50 [5]: 23.3 µM (active)
- IC50 (Caspase-3): 25.6 µM (active)
- IC50 [6]: 7.69 µM (active)
- IC50 (Protein skinhead-1): > 100 µM (inactive)
- IC50 [7]: 16.2 µM (active)
